Data on 8 molecules can be found in ChEMBL document CHEMBL1154964, “Acidic elements in histamine H(3) receptor antagonists” (Bioorg Med Chem Lett, 2010).

Structures are written as SMILES.

One experiment deals with Histamine H3 receptor (Homo sapiens, UniProt Q9Y5N1). In words: Displacement of [125I]Iodoproxyfan from human histamine H3 receptor expressed in HEK293 cells after 60 mins by scintillation counting. Format: cell-based.
Histamine H3 receptor, sequence (Q9Y5N1 whole entry): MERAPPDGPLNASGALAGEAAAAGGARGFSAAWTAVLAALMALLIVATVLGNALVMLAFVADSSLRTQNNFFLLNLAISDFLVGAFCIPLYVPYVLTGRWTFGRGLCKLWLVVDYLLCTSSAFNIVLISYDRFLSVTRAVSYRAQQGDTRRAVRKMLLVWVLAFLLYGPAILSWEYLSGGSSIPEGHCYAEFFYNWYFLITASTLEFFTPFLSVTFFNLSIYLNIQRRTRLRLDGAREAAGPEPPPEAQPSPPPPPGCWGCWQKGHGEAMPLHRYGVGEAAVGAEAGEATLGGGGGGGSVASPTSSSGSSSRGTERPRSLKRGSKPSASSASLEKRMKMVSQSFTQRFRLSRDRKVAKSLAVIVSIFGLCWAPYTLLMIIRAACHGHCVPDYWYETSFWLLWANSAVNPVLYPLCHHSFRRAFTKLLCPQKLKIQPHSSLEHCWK
Consider `COC(=O)C1CSC(c2ccc(OCCCN3CCCCC3)cc2)N1` (centres undefined), for which affinity was put at a Ki of 3.98 nM.

As to `O=C(O)C1CSC(c2ccc(OCCCN3CCCCC3)cc2)N1` (centres undefined), the Ki is 10 nM.

The molecule `CN(CCC=C1c2ccccc2CCc2ccccc21)Cc1ccc(OCCCN2CCCCC2)cc1` had an inhibition constant Ki of 0.316 nM.

`O=C1NC(=O)/C(=C/c2ccc(OCCCN3CCCCC3)cc2)S1` gave an inhibitory constant (Ki) of 7.94 nM.

In turn, `O=C1NC(=S)S/C1=C\c1ccc(OCCCN2CCCCC2)cc1` had an inhibitory constant (Ki) of 5.01 nM.

In the case of `O=C(O)c1cn(C2CC2)c2cc(N3CCN(Cc4ccc(OCCCN5CCCCC5)cc4)CC3)c(F)cc2c1=O`, the inhibitory constant (Ki) is 2 nM.

As to `O=C1NC(=O)C(Cc2ccc(OCCCN3CCCCC3)cc2)S1` (centres undefined), affinity was put at a Ki of 50.1 nM.

For the molecule `c1cc(C2=NCCN2)ccc1OCCCN1CCCCC1`, the affinity, expressed as Ki, was 7.94 nM.

The target of the next experiment is T1, Peroxisome proliferator-activated receptor alpha (Homo sapiens, UniProt Q07869).
T1 sequence (Q07869 whole entry): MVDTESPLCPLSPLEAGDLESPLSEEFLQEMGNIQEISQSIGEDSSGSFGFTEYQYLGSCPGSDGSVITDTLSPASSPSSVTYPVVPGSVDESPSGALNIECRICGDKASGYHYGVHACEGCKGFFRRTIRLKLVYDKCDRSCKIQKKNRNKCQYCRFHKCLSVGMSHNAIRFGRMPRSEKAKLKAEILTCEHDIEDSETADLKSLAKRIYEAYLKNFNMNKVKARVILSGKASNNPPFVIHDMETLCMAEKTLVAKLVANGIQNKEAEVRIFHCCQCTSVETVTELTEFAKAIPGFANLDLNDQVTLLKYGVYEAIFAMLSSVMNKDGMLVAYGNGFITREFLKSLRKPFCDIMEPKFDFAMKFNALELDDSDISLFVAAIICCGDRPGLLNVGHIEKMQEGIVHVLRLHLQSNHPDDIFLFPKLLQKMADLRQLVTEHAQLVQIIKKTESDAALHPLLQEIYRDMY
In words: Agonist activity at human recombinant PPARalpha LBD expressed in african green monkey COS7 cells coexpressing GAL4 by luciferase reporter gene transactivation assay. Format: functional, cell-based, COS-7.
Take `O=C1NC(=S)S/C1=C\c1ccc(OCCCN2CCCCC2)cc1`: the concentration for a half-maximal effect (EC50) is over 10000 nM.
